The supplement of paper PMC10307832

Legend:
Experiment in all cases: relative viability (nuclei count vs DMSO), 5 days (fraction); higher = more cells survive
[1] = compound: COC1=C(C=C(C=C1)C2=CC3=NC=CN3C(=N2)NC4=C(C=CC=N4)C(=O)N)OC [BAY61-3606] + CC1(C)CCC(c2ccc(Cl)cc2)=C(CN2CCN(c3ccc(C(=O)NS(=O)(=O)c4ccc(N[C@H](CCN5CCOCC5)CSc5ccccc5)c(S(=O)(=O)C(F)(F)F)c4)cc3)CC2)C1 [Navitoclax] (partner 0.5 µM)
Procedure, shortened: (§1)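 Relative viability equals treated-well nuclei counts divided by vehicle-well nuclei counts. Counts came from 4× images of lung cancer cell lines grown in 1536-well plates for 5 days after pin-tool dosing on the day after seeding. Dosing used one drug alone or a fixed anchor-drug dose plus five library-drug doses (not always all listed) in √10 steps, and values are medians of duplicate plates.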

[2] = compound: COC1=C(C=C(C=C1)C2=CC3=NC=CN3C(=N2)NC4=C(C=CC=N4)C(=O)N)OC [BAY61-3606] + CS(=O)(=O)CCNCc1ccc(-c2ccc3ncnc(Nc4ccc(OCc5cccc(F)c5)c(Cl)c4)c3c2)o1 [Lapatinib] (partner 2 µM)
Procedure, shortened: as §1

[3] = compound: COc1cccc2c1C(=O)c1c(O)c3c(c(O)c1C2=O)C[C@@](O)(C(=O)CO)C[C@@H]3O[C@H]1C[C@H](N)[C@H](O)[C@H](C)O1 [Doxorubicin] + CCNC(=O)c1noc(-c2cc(C(C)C)c(O)cc2O)c1-c1ccc(CN2CCOCC2)cc1 [Luminespib] (partner 0.01 µM)
Procedure, shortened: as §1

[4] = compound: COc1cccc2c1C(=O)c1c(O)c3c(c(O)c1C2=O)C[C@@](O)(C(=O)CO)C[C@@H]3O[C@H]1C[C@H](N)[C@H](O)[C@H](C)O1 [Doxorubicin] + Cc1nc(Nc2ncc(C(=O)Nc3c(C)cccc3Cl)s2)cc(N2CCN(CCO)CC2)n1 [Dasatinib] (partner 0.075 µM)
Procedure, shortened: as §1

Cell Line	relative viability ([1]; first compound 0.02 µM)	relative viability ([1]; first compound 0.06325 µM)	relative viability ([1]; first compound 0.2 µM)	relative viability ([1]; first compound 0.6325 µM)	relative viability ([1]; first compound 2 µM)	relative viability ([2]; first compound 0.02 µM)	relative viability ([2]; first compound 0.06325 µM)	relative viability ([2]; first compound 0.2 µM)	relative viability ([2]; first compound 0.6325 µM)	relative viability ([2]; first compound 2 µM)	relative viability ([3]; first compound 0.001 µM)	relative viability ([3]; first compound 0.003162 µM)	relative viability ([3]; first compound 0.01 µM)	relative viability ([3]; first compound 0.03162 µM)	relative viability ([3]; first compound 0.1 µM)	relative viability ([4]; first compound 0.001 µM)	relative viability ([4]; first compound 0.003162 µM)	relative viability ([4]; first compound 0.01 µM)	relative viability ([4]; first compound 0.03162 µM)	relative viability ([4]; first compound 0.1 µM)
NCI-H460	1.27	1.28	1.06	1.1	0.756	1.05	1.19	0.938	1.01	0.189	0.0376	0.0412	0.0317	0.0182	0.0137	0.507	0.427	0.405	0.171	0.0701
SK-LU-1	1.19	0.836	0.695	0.812	0.55	0.953	0.81	0.885	0.862	0.532	0.204	0.215	0.249	0.203	0.165	0.158	0.193	0.166	0.124	0.116
COR-L23	1.06	1.1	1.02	1.11	0.813	0.872	1.08	0.826	1.04	0.834	0.678	0.637	0.567	0.163	0.147	0.466	0.629	0.486	0.27	0.128
NCI-H2126	0.88	0.823	0.769	0.759	0.742	0.83	0.724	0.745	0.794	0.745	0.643	0.88	0.817	0.394	0.286	0.619	0.556	0.55	0.232	0.224
NCI-H1975	1.16	0.937	1.02	1.04	0.72	0.996	0.881	0.963	0.925	0.595	0.139	0.183	0.249	0.167	0.178	0.406	0.356	0.331	0.304	0.158
NCI-H1944	1.12	1.1	1.01	1.02	1.04	0.851	0.88	0.796	0.776	0.587	0.725	0.733	0.751	0.674	0.651	0.18	0.206	0.216	0.165	0.174
NCI-H2085	1.31	1.23	1.12	1.33	1.01	0.865	0.784	0.777	0.977	0.71	0.471	0.462	0.46	0.47	0.478	0.286	0.278	0.224	0.224	0.241
COR-L 105	0.79	0.714	0.624	0.812	0.409	0.355	0.378	0.418	0.417	0.351	0.678	0.754	0.691	0.595	0.363	0.431	0.355	0.323	0.257	0.261
NCI-H23	0.936	0.809	0.775	0.983	0.551	1.16	1.39	1.11	0.985	0.95		0.221	0.235	0.18	0.23		1.01	0.88	0.668	0.547
PC-14	1.04	1.11	0.983	1.01	0.982	0.367	0.278	0.357	0.339	0.377	0.173	0.181	0.122	0.14	0.116	0.28	0.184	0.22	0.0983	0.0282
NCI-H2087	0.896	1.06	0.981	0.922	0.82	0.747	1.08	0.994	1.11	1		0.19	0.14	0.133	0.144		0.844	0.769	0.475	0.222
NCI-H1755	1.03	1.02	0.993	1.06	0.782	1.08	1.01	0.994	1.12	0.95	0.361	0.273	0.597	0.381	0.323	0.444	0.288	0.437	0.434	0.554
NCI-H2228	1.18	0.736	0.658	1.08	0.713	1.34	1.01	1.27	1	0.894	0.208	0.139	0.2	0.151	0.135	0.45	0.598	0.483	0.229	0.112
EMC-BAC-2	1.21	1.21	1.16	1.24	1.19	0.882	0.969	0.861	1.11	0.921	1.25	1.18	1.04	0.551	0.425	0.357	0.316	0.263	0.171	0.12
NCI-H2009	1.14	1.22	1.14	1.15	1.11	1	0.971	0.937	0.962	0.861	1.07	0.979	1.01	0.925	0.582	0.308	0.319	0.296	0.272	0.235
NCI-H838	1.3	1.24	1.07	1.12	0.956	1.17	0.875	0.971	0.951	0.621	0.273	0.35	0.279	0.255	0.172	0.292	0.284	0.228	0.307	0.277

Cell Line	relative viability ([1]; first compound 0.02 µM)	relative viability ([1]; first compound 0.06325 µM)	relative viability ([1]; first compound 0.2 µM)	relative viability ([1]; first compound 0.6325 µM)	relative viability ([1]; first compound 2 µM)	relative viability ([2]; first compound 0.02 µM)	relative viability ([2]; first compound 0.06325 µM)	relative viability ([2]; first compound 0.2 µM)	relative viability ([2]; first compound 0.6325 µM)	relative viability ([2]; first compound 2 µM)	relative viability ([3]; first compound 0.001 µM)	relative viability ([3]; first compound 0.003162 µM)	relative viability ([3]; first compound 0.01 µM)	relative viability ([3]; first compound 0.03162 µM)	relative viability ([3]; first compound 0.1 µM)	relative viability ([4]; first compound 0.001 µM)	relative viability ([4]; first compound 0.003162 µM)	relative viability ([4]; first compound 0.01 µM)	relative viability ([4]; first compound 0.03162 µM)	relative viability ([4]; first compound 0.1 µM)
NCI-H1915	0.775	0.779	0.715	0.755	0.765	1.02	1.02	0.925	0.878	0.919	0.802	0.733	0.702	0.715	0.779	0.281	0.355	0.308	0.302	0.324
NCI-H1355	1.08	0.962	0.865	0.995	0.721	1.07	0.907	0.926	0.948	0.764	0.697	0.829	0.686	0.605	0.732	0.723	0.789	0.722	0.706	0.764
NCI-H1651	1.21	1.09	0.964	1.17	0.909	0.979	0.863	0.768	0.826	0.801	0.749	0.954	0.66	0.305	0.216	0.334	0.39	0.246	0.154	0.102
NCI-H2023	1.03	1.05	1.07	1.02	0.873	0.917	0.805	0.869	1.45	0.591	0.765	0.677	0.243	0.0918	0.0632	0.672	0.588	0.431	0.173	0.0859
LU99A	0.845	0.762	0.984	0.828	0.396	0.97	1.02	0.909	0.976	0.486	0.226	0.228	0.268	0.235	0.258	0.359	0.526	0.527	0.422	0.361
NCI-H322M	1.38	1.25	1.22	1.3	1.33	0.622	0.612	0.596	0.599	0.553	0.635	0.846	0.858	0.401	0.357	0.29	0.237	0.27	0.275	0.272
LOU-NH91	0.73	0.57	0.731	0.812	0.5	0.765	0.681	0.827	0.735	0.669	0.34	0.347	0.314	0.323	0.328	0.488	0.646	0.529	0.531	0.474
NCI-H727	0.45	0.512	0.419	0.525	0.33	0.701	0.742	0.82	0.983	0.753	0.286	0.348	0.225	0.336	0.308	0.271	0.46	0.305	0.368	0.329
RERF-LC-KJ	0.759	0.9	0.975	0.83	0.876	0.935	0.741	0.859	0.814	0.709	1.32	1.21	0.838	0.323	0.308	0.85	0.83	0.706	0.318	0.278
H3255	0.555	0.54	0.502	0.494	0.609	0.257	0.203	0.274	0.249	0.229	0.982	0.84	0.841	0.75	0.829	0.359	0.388	0.436	0.333	0.33
NCI-H1793	0.547	0.578	0.471	0.459	0.249	0.479	0.775	0.823	0.948	0.796		0.228	0.289	0.159	0.263		0.511	0.374	0.33	0.413
LXF-289	0.887	1.05	0.952	0.981	1.01	0.886	0.945	0.95	0.934	0.992	0.63	0.576	0.703	0.635	0.658	0.224	0.293	0.241	0.238	0.281
HOP-62	0.981	1.08	0.981	1.08	0.676	0.918		1.05	1.06	1.07	0.906	0.942	0.896	0.958	0.931	0.68	0.737	0.601	0.628	0.552
LK-2	0.927	0.963	0.925	0.896	0.705	0.922	0.777	1.01	1.03	0.935	0.171	0.215	0.235	0.162	0.16	0.326	0.284	0.221	0.286	0.265
BEN	0.0718	0.0633	0.0644	0.0773	0.0651	0.938	0.694	0.679	0.757	0.787	0.368	0.39	0.317	0.277	0.283	0.366	0.296	0.329	0.294	0.418
